Measured values: patent US11304913B2, “Analgesic compositions” (Vapogenix, Inc., priority 2013, dated 2022)

Assay type: physicochemical
Experimental: A time-dependent evaporation study was performed with a composition of the invention (FIG. 3). Isoflurane alone was used as the control in the experiment.

original weight remaining (0.75 h): 86.8%
lost due to evaporation (after 45 minutes of experiment): 13.2%
Structure (SMILES): FC(F)OC(Cl)C(F)(F)F (centres unmarked) [isoflurane]
